Earlier results, collected in patent US20150283148A1, “ARRANGEMENT OF SPECIFIC ANTIDOTES WITH ALLOPATHIC MEDICINAL PREPARATIONS IN GENERAL SECONDARY PACKAGE” (priority 2014, published 2015).

Conditions: predicted by algorithm

NS(=O)(=O)Cc1noc2ccccc12 [Zonisamide]
predicted latent side effect: suicidal thoughts
